Laboratory results as given in ChEMBL document CHEMBL5329199, “Discovery of novel dual Bruton's tyrosine kinase (BTK) and Janus kinase 3 (JAK3) inhibitors as a promising strategy for rheumatoid arthritis” (Bioorg Med Chem, 2023).
pIC50: −log10 of the molar value.

What was measured:
[1] = Acute toxicity in po dosed ICR mouse assessed as minimum lethal dose measured for 7 days; assay type: organism-based; details: in vivo, 168 h, time 7 day
[2] = biological target: T1, Tyrosine-protein kinase JAK3 (Homo sapiens, UniProt P52333); test: Inhibition of JAK3 (unknown origin) preincubated for 10 mins followed by kinase substrate and ATP addition and measured for 30 mins by mobility shift assay
T1 sequence (P52333 whole entry): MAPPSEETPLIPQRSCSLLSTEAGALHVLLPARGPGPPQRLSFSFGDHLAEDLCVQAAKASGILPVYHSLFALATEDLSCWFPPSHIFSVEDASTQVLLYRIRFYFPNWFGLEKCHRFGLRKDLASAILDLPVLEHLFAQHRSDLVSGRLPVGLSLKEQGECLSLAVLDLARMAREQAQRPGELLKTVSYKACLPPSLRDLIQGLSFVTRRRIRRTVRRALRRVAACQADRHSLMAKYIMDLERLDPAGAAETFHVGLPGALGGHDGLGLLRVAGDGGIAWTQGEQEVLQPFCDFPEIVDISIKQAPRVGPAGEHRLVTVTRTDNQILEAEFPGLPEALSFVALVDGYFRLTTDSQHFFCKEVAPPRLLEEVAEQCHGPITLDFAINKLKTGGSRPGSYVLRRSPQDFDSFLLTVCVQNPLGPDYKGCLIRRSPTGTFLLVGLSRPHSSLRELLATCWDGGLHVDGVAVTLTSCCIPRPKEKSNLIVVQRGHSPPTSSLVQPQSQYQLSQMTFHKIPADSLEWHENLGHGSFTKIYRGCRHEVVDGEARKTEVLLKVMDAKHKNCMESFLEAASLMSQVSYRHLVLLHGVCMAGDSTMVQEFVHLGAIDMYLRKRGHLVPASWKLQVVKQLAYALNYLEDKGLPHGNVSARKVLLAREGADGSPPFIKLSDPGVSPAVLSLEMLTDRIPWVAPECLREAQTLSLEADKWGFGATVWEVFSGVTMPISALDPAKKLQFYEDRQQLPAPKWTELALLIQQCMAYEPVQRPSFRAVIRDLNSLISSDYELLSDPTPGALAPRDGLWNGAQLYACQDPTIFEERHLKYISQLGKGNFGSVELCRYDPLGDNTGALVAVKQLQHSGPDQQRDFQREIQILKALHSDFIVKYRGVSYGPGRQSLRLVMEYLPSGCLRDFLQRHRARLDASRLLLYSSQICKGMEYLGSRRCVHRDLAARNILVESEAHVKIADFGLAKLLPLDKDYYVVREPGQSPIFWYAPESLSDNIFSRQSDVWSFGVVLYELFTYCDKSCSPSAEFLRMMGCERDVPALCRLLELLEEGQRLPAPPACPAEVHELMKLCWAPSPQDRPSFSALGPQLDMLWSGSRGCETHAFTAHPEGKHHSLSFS

[3] = biological target: Voltage-gated inwardly rectifying potassium channel KCNH2 (Homo sapiens, UniProt Q12809); test: Inhibition of human ERG by patch clamp assay
Sequence of Voltage-gated inwardly rectifying potassium channel KCNH2 (Q12809 whole entry): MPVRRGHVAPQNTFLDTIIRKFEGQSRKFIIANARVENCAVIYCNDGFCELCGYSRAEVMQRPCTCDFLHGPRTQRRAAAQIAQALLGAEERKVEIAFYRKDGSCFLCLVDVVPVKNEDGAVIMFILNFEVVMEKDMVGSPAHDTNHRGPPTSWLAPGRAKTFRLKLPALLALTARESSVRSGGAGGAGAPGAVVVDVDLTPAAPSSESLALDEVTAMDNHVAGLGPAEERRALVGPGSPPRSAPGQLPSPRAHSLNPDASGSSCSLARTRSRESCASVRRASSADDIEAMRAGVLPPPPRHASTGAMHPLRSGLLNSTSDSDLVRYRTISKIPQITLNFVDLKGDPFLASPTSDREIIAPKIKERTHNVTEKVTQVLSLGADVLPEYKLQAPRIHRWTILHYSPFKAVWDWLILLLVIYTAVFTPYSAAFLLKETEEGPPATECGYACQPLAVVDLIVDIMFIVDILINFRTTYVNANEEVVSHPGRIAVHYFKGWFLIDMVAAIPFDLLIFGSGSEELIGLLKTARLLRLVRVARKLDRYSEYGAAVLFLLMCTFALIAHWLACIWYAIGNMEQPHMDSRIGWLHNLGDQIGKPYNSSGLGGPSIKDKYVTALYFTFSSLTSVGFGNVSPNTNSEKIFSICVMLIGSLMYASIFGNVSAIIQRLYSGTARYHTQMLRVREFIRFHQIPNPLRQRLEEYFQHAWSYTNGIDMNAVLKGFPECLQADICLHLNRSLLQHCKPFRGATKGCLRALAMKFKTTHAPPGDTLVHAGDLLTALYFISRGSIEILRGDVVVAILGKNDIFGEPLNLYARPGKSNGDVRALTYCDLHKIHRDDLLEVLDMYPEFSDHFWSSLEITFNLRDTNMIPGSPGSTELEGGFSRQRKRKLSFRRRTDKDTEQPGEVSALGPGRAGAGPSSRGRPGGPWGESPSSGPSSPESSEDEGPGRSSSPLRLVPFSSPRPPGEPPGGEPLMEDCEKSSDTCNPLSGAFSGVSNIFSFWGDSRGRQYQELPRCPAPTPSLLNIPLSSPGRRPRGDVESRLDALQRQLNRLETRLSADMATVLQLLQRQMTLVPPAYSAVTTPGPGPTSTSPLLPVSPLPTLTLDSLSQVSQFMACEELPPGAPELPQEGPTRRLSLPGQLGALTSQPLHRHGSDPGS

[4] = Cytotoxicity against mouse RAW264.7 cells incubated for 12 hrs by MTT assay; assay type: toxicity, cell-based
[5] = Oral bioavailability in Sprague-Dawley rat at 50 mg/kg measured for 720 mins by LC/MS analysis; assay type: ADME, organism-based; details: in vivo
[6] = Cytotoxicity against HUVEC cells incubated for 24 hrs by MTT assay; assay type: toxicity, cell-based; details: human
[7] = Observed MRT(infinity) in Sprague-Dawley rat at 5 mg/kg, iv measured for 720 mins by LC/MS analysis; assay type: ADME, organism-based; details: in vivo
Daudi = test: Antiproliferative activity against human Daudi cells assessed as inhibition of cell growth incubated for 72 hrs by Cell Titer-Glo assay; assay type: functional, cell-based
[8] = biological target: Tyrosine-protein kinase BTK (Homo sapiens, UniProt Q06187); test: Inhibition of BTK (unknown origin) preincubated for 10 mins followed by kinase substrate and ATP addition and measured for 20 mins by mobility shift assay
Sequence of Tyrosine-protein kinase BTK (Q06187 whole entry): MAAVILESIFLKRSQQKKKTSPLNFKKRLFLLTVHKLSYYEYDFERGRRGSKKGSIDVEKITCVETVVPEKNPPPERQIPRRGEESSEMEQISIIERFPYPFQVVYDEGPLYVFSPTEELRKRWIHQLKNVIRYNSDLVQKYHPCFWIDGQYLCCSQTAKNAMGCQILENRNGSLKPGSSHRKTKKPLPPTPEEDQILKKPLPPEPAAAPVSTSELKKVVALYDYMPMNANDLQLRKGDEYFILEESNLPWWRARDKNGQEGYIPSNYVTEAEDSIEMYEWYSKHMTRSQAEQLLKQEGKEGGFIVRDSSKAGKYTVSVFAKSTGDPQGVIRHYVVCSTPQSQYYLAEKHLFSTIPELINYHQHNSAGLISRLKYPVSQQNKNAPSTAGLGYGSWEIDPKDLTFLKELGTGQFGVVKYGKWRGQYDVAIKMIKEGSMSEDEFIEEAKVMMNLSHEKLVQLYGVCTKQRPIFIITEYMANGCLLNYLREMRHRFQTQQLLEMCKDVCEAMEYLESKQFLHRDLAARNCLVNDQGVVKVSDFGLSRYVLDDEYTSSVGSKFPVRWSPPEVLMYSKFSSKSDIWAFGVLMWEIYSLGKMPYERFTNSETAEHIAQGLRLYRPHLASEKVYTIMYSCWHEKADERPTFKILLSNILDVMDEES

[9] = Cmax in Sprague-Dawley rat at 50 mg/kg, po measured for 720 mins by LC/MS analysis; assay type: ADME, organism-based; design: dose 50 mg/kg, time 720 min, route po; details: in vivo
[10] = biological target: Tyrosine-protein kinase JAK2 (Homo sapiens, UniProt O60674); test: Inhibition of JAK2 (unknown origin) using kinetic substrate in presence of ATP by mobility shift assay
[11] = biological target: Non-receptor tyrosine-protein kinase TYK2 (Homo sapiens, UniProt P29597); test: Inhibition of TYK2 (unknown origin) using kinetic substrate in presence of ATP by mobility shift assay
Sequence of Non-receptor tyrosine-protein kinase TYK2 (P29597 whole entry): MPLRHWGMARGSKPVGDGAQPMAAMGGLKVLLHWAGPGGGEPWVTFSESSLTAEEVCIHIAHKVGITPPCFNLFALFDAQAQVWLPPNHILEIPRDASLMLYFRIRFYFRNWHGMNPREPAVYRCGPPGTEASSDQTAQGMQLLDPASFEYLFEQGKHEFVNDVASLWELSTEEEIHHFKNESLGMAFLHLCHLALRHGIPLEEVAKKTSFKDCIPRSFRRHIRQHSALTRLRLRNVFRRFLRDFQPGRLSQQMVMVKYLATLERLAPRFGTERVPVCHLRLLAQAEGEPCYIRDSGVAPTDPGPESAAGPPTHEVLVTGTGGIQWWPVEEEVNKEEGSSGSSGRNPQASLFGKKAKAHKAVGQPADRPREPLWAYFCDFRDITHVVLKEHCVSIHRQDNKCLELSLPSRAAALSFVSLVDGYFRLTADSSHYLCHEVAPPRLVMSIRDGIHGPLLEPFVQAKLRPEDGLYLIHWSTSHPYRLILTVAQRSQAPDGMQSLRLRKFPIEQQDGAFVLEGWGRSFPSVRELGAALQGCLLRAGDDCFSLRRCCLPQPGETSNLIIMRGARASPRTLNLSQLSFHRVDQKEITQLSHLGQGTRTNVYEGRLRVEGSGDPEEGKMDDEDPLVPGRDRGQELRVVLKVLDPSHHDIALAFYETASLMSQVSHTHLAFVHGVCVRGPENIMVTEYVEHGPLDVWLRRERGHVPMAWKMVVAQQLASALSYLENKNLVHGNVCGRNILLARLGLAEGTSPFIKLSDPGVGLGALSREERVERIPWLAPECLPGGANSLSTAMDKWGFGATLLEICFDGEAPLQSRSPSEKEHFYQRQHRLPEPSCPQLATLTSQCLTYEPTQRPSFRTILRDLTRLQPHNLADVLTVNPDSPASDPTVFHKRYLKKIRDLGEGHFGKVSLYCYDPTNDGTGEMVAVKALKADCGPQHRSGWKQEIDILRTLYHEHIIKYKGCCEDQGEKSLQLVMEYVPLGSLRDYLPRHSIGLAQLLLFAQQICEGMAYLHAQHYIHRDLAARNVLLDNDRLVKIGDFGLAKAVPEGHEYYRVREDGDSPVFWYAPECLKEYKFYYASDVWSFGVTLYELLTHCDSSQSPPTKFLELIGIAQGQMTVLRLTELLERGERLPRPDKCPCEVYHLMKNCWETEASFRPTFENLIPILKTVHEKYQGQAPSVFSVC

[12] = Cytotoxicity against HUVEC cells incubated for 12 hrs by MTT assay; assay type: toxicity, cell-based; details: human
[13] = Cytotoxicity against rat NRK cells incubated for 48 hrs by MTT assay; assay type: toxicity, cell-based
[14] = Cytotoxicity against rat NRK cells incubated for 24 hrs by MTT assay; assay type: toxicity, cell-based
[15] = biological target: Tyrosine-protein kinase JAK1 (Homo sapiens, UniProt P23458); test: Inhibition of JAK1 (unknown origin) using kinetic substrate in presence of ATP by mobility shift assay
Sequence of Tyrosine-protein kinase JAK1 (P23458 whole entry): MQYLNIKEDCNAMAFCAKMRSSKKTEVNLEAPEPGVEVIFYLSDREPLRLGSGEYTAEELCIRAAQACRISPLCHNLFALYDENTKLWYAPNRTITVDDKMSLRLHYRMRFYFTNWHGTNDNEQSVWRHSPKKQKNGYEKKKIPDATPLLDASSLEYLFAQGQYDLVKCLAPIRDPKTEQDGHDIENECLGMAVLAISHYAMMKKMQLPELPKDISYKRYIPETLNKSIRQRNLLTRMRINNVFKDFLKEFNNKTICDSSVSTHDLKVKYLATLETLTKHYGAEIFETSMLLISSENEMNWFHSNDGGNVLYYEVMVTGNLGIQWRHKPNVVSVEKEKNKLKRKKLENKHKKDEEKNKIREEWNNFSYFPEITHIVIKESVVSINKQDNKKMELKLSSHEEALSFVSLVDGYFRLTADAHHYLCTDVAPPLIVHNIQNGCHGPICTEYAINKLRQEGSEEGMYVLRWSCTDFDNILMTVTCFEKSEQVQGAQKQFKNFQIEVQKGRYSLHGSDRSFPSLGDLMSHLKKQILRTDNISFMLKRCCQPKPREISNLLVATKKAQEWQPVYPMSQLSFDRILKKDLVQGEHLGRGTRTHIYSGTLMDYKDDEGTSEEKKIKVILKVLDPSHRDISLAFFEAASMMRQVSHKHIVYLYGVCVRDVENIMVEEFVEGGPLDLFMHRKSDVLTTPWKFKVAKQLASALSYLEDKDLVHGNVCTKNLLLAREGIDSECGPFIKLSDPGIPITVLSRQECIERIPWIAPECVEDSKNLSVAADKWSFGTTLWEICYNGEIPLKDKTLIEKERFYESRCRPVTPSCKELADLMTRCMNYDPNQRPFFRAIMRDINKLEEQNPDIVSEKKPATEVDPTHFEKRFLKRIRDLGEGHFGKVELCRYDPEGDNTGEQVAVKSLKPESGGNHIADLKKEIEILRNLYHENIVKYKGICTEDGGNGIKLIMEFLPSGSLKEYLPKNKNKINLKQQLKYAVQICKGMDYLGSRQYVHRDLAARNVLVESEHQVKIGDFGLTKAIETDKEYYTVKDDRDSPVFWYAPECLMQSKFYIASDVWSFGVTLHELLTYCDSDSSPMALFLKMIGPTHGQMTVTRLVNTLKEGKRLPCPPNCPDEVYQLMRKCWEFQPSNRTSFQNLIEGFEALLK

[16] = Cytotoxicity against human L02 cells incubated for 12 hrs by MTT assay; assay type: toxicity, cell-based
[17] = Cytotoxicity against human L02 cells incubated for 48 hrs by MTT assay; assay type: toxicity, cell-based
[18] = Cytotoxicity against mouse RAW264.7 cells incubated for 48 hrs by MTT assay; assay type: toxicity, cell-based
[19] = Tmax in Sprague-Dawley rat at 50 mg/kg, po by LC/MS analysis; assay type: ADME, organism-based; details: in vivo
[20] = Cytotoxicity against human L02 cells incubated for 24 hrs by MTT assay; assay type: toxicity, cell-based
BaF3 = test: Antiproliferative activity against mouse BaF3 cells expressing JAK3 mutant assessed as inhibition of cell growth incubated for 72 hrs by Cell Titer-Glo assay; assay type: functional, cell-based; details: BaF3, 72 h
[21] = Cytotoxicity against rat NRK cells incubated for 12 hrs by MTT assay; assay type: toxicity, cell-based
[22] = Cytotoxicity against mouse RAW264.7 cells incubated for 24 hrs by MTT assay; assay type: toxicity, cell-based
[23] = AUC(all) in Sprague-Dawley rat at 50 mg/kg, po measured for 720 mins by LC/MS analysis; assay type: ADME, organism-based; design: dose 50 mg/kg, time 720 min, route po; details: in vivo
[24] = Cytotoxicity against HUVEC cells incubated for 48 hrs by MTT assay; assay type: toxicity, cell-based; details: human
[25] = Observed MRT(infinity) in Sprague-Dawley rat at 50 mg/kg, po measured for 720 mins by LC/MS analysis; assay type: ADME, organism-based; details: in vivo
[26] = AUC(all) in Sprague-Dawley rat at 5 mg/kg, iv measured for 720 mins by LC/MS analysis; assay type: ADME, organism-based; design: time 720 min, dose 5 mg/kg, route iv; details: in vivo
[27] = Half life in Sprague-Dawley rat at 50 mg/kg, po by LC/MS analysis; assay type: ADME, organism-based; details: in vivo

Compound: C=CC(=O)N1CCC[C@@H](n2nc(-c3ccc(NC(=O)c4ccc(N(C)C)cc4)c4c3OCO4)c3c(N)ncnc32)C1
- MLD [1]: > 1600 mg/kg
- pIC50 [2]: 7.85
- pIC50 [3]: 4.83
- IC50 at 12 h [4]: 60.8 µM
- bioavailability [5]: 13.2%
- IC50 at 24 h [6]: 40.6 µM
- MRT inf [7]: 9.36 min
- pIC50 (Daudi): 6.16
- pIC50 [8]: 8.70
- Cmax [9]: 209 ng/mL
- pIC50 [10]: < 5.00
- pIC50 [11]: < 5.00
- IC50 at 12 h [12]: 50 µM
- IC50 at 48 h [13]: 11.8 µM
- IC50 at 24 h [14]: 15.7 µM
- pIC50 [15]: < 5.00
- IC50 at 12 h [16]: 69.9 µM
- IC50 at 48 h [17]: 9.61 µM
- IC50 at 48 h [18]: 19.7 µM
- Tmax [19]: 0.459 h
- IC50 at 24 h [20]: 28.2 µM
- pIC50 (BaF3): 6.44
- IC50 at 12 h [21]: 51 µM
- IC50 at 24 h [22]: 50.6 µM
- AUC at 12 h [23]: 437 ng·h/mL
- IC50 at 48 h [24]: 27.3 µM
- MRT inf [25]: 3.4 h
- AUC at 12 h [26]: 299 ng·h/mL
- half-life [27]: 2.57 h
